The text below walks through data of patent US20030152515A1, “Method for estimating effective regimens and patient survival rates of antibiotic treatments for fatal infectious diseases” (priority 2002, published 2003).

Converted amounts (≈) assume the structure as drawn. “Also recorded” adds a separate entry of the source.

The test system of assay [1] is gram positive and negative organisms. The settings on record: cited from earlier work.
Assay [2] relates to Bacillus anthracis. The conditions noted are these: rhesus monkey, in vivo; cited from earlier work.
Assay [3] deals with inhalational anthrax. The conditions noted are these: human, in vivo; cited from earlier work.
Assay [4] deals with anthrax. Briefly: microbe, parasite or virus in culture. The format is cell-based. The settings on record: Bacillus anthracis, read-out: MIC against anthrax, mid point adopted in the analyses.

`O=C(O)c1cn(C2CC2)c2cc(N3CCNCC3)c(F)cc2c1=O` [ciprofloxacin]: the “MIC range of organisms in the literature study” value in assay [1] was 0.008−0.4 μg/mL. Moreover, in assay [2], the “protection from the disease while on therapy” value is given as “sufficient protection; also recorded: adequately protected” and the survival rate is on record as 90%. In assay [3], the overall survival is recorded as 55%. The MIC in assay [4] came out at 0.07 mg/L (≈ 0.211 µM).
